{"source": "patent US11793823B2", "about": "“Compounds and pharmaceutical uses thereof” (SyneuRx International (Taiwan) Corp., priority 2020, dated 2023)", "key": {"[1]": {"molecular_target": "human D-amino acid oxidase (hDAAO) (Homo sapiens (Human), UniProt P14920)", "sequence (P14920 whole entry)": "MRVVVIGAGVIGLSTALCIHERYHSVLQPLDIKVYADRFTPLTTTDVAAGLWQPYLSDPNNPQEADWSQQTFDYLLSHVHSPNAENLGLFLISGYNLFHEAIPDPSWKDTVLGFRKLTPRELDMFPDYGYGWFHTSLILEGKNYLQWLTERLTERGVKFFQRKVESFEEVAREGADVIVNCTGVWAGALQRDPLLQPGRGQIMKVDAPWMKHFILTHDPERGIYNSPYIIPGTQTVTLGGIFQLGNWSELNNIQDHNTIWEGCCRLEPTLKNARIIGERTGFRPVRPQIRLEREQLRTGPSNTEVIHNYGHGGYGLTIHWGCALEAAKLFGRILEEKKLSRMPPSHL", "experiment": "In vitro human D-amino acid oxidase (hDAAO) activity, D-Serine/Amplex Red fluorescence", "type": "biochemical", "details": "D-Serine substrate, 20 min", "outline": "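Recombinant hDAAO activity with D-serine as substrate; H2O2 was coupled via HRP to Amplex Red and fluorescence read at ex 530/em 590 nm at 0 and 20 min, dark, room temperature, Tris pH 8.5 with FAD. Inhibition came from the 20–0 min signal change relative to DMSO, and IC50 from nonlinear fits of 3-fold dilutions run in triplicate.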"}, "MK-801 treated mice [2]": {"system": "MK-801 treated mice", "experiment": "Open field test, MK-801 induced hyper-locomotion", "type": "in vivo", "details": "for relief of MK801-induced hyperactivity: MK-801 0.2 mg/kg i.p., open field", "description": "(§1) C57BL/6J male mice were group housed (3-5 mice per cage) with food and water available ad libitum in polysulfone ventilated cages (Alternative Design, AR, USA) in the animal room of SyneuRx. The colony was maintained on a 12/12-h light/dark cycle at the temperature of 22±2° C. and all behavioral studies were performed during the dark cycle. All animals used in this study were adult mice (at least 2.5 months of age). All animal procedures were performed according to the protocols approved by Institutional Animal Care and Use Committee (IACUC).\n(§2) The mice were randomly assigned into five groups for open field test, Group 1: vehicle control, Group 2: MK-801, Group 3: Compound 66 at 10 mg/kg+MK-801, Group 4: Compound 66 at 30 mg/kg+MK-801, Group 5: Compound 66 at 100 mg/kg+MK-801. Mice at Group 2-5 received an acute administration of MK-801 (Sigma-Aldrich USA), a NMDA receptor antagonist, dissolved in normal saline, at 0.2 mg/kg for open field. For pre-pulse inhibition (PPI) test, animal was randomly assigned for four groups, Group 1: vehicle control, Group 2: MK-801, Group 3: Compound 66 at 3 mg/kg+MK-801, Group 4: Compound 66 at 10 mg/kg. Group 2-4 was received 0.3 mg/kg, MK-801. MK-801 was administrated by i.p. injection 20 minutes prior to open field and PPI tests. Test article, compound 66 (dissolved in ddH2O with 65% PEG400 and 10% DMSO), was orally treated 20 minutes prior to the MK-801 administration.\nThe open field task is a common measurement of novelty induced exploratory behavior and general activity in both mice and rats. The objective of this experiment was to evaluate the efficacy of compound 66 on attenuating the MK-801 induced hyper-locomotion. In this study, the mice were placed in a Plexiglas cage (37.5 cm×21.5 cm×18 cm) under 50-65 lux light intensity. Their spontaneous locomotor activities were measured for 60 minutes using the Photobeam Activity System (PAS)-open field (San Diego Instruments, San Diego, CA, USA). The total number of photo beam breaks of each mouse was measured as an index of locomotion activity.\nas §2, with “74” for “66”, “field test.” for “field.”\nAll mice were tested with open field and pre-pulse inhibition tasks. The open field and pre-pulse inhibition tasks were used to evaluate the efficacy of the compound 74 on attenuating the MK-801 induced hyper-locomotion and deficit of sensorimotor gating function in mice, respectively. The apparatus and recording method of open field and pre-pulse inhibition task were as described above in Example 45.\nMice at Group 2-5 received an acute administration of MK-801 (Sigma-Aldrich USA), a NMDA receptor antagonist, dissolved in normal saline, at 0.2 mg/kg for open field test. […] Group […] was received 0.3 mg/kg, MK-801. MK-801 was administrated by i.p. injection 20 minutes prior to open field and PPI tests.\nThe open field task is a common measurement of novelty induced exploratory behavior and general activity in both mice and rats. […] In this study, the mice were placed in a Plexiglas cage (37.5 cm×21.5 cm×18 cm) under 50-65 lux light intensity. […]"}, "MK-801 treated mice [3]": {"system": "MK-801 treated mice", "experiment": "Pre-pulse inhibition (PPI) test, MK-801 induced deficit of sensorimotor gating", "type": "in vivo", "details": "MK-801 0.3 mg/kg i.p.", "description": "as §1, §2\nPre-pulse inhibition, using SR-LAB startle apparatus (San Diego Instruments, San Diego, CA, USA), was used to determine the efficacy of compound 66 on attenuating the MK-801 induced deficit of sensorimotor gating function in mice. Under 65 dB background noise, each session was composed of a 5-minute accumulation period followed by 64 trials in four blocks. The pulse alone (PA) trial was a 40 ms, 120 dB white noise burst. In the prepulse (pp)+pulse trials, a 20 ms white noise prepulse stimuli of 71 dB (pp6), 75 dB (pp10), and 83 dB (pp18) were presented 100 ms before a 40 ms 120 dB pulse. The non-stimulus (NS) trials presented the background noise only. The initial and the last blocks were composed of six PA trials, respectively. Two middle blocks consisted of PA, pp+pulse, and NS trials. These trials were presented pseudo-randomly and separated by intertribal intervals of 15 seconds on average (varying between 10 to 20 s). The percentage of prepulse inhibition was evaluated by the following formula: % PPI=100×[(PA score)−(pp-P score)]/(PA score), where the PA score was the average of the PA value in the middle blocks.\nas §2, with “74” for “66”, “field test.” for “field.”\nAll mice were tested with open field and pre-pulse inhibition tasks. The open field and pre-pulse inhibition tasks were used to evaluate the efficacy of the compound 74 on attenuating the MK-801 induced hyper-locomotion and deficit of sensorimotor gating function in mice, respectively. The apparatus and recording method of open field and pre-pulse inhibition task were as described above in Example 45. […]"}, "SARS-CoV-2 3CLPro": {"molecular_target": "SARS-CoV-2 3CLPro (Severe acute respiratory syndrome coronavirus 2 (2019-nCoV) (SARS-CoV-2), UniProt P0DTD1)", "experiment": "biochemical", "details": "final DMSO concentration 2%"}, "[4]": {"details": "75 dB and 83 dB pre-pulse, 3 mg/kg oral"}, "[5]": {"details": "75 dB and 83 dB pre-pulse, 10 mg/kg oral"}}, "note": "Like-named read-outs stand apart in the source and are kept apart here."}
{"smiles": "O=C(O)c1cc(O)c(O)c(OC(=O)c2cc(O)c(O)c(OC(=O)c3cc(O)c(O)c(OC(=O)c4cc(O)c(O)c(OC(=O)c5cc(O)c(O)c(OC(=O)c6cc(CCc7ccc(C(F)(F)F)cc7)n[nH]6)c5)c4)c3)c2)c1", "note": "[Compound 66, 3-((3-((3-((3-((3,4-dihydroxy-5-((3-(4-(trifluoromethyl)phenethyl)-1H-pyrazole-5-carbonyl)oxy)benzoyl)oxy)-4,5-dihydroxybenzoyl)oxy)-4,5-dihydroxybenzoyl)oxy)-4,5-dihydroxybenzoyl)oxy)-4,5-dihydroxybenzoic acid]", "values": [{"measurement": "IC50", "setting": "[1]", "value": 25, "unit": "nM"}, {"measurement": "effect on MK-801 induced hyper-locomotion vs MK-801 group", "setting": "MK-801 treated mice [2]; 10, 30 and 100 mg/kg oral, dose-dependent", "value": "significantly reduced"}, {"measurement": "relief of MK801-induced hyperactivity", "setting": "MK-801 treated mice [2]; high dose 100 mg/kg oral", "value": 67, "unit": "%"}, {"measurement": "effect on pre-pulse inhibition vs MK-801 group", "setting": "MK-801 treated mice [3]; 71 dB pre-pulse, 10 mg/kg oral", "value": "relieve PPI deficit to basal level"}, {"measurement": "effect on pre-pulse inhibition vs MK-801 group", "setting": "MK-801 treated mice [3]; [4]", "value": "marginal improvement"}, {"measurement": "effect on pre-pulse inhibition vs MK-801 group", "setting": "MK-801 treated mice [3]; [5]", "value": "significantly higher percentage of pre-pulse inhibition"}]}
{"smiles": "O=C(O)c1cc(O)c(O)c(OC(=O)c2cc(O)c(O)c(OC(=O)c3cc(O)c(O)c(OC(=O)c4cc(O)c(O)c(OC(=O)c5cc(O)c(O)c(OC(=O)c6cc(CCc7ccccc7C(F)(F)F)n[nH]6)c5)c4)c3)c2)c1", "note": "[Compound 74, 3-((3-((3-((3-((3,4-dihydroxy-5-((3-(2-(trifluoromethyl)phenethyl)-1H-pyrazole-5-carbonyl)oxy)benzoyl)oxy)-4,5-dihydroxybenzoyl)oxy)-4,5-dihydroxybenzoyl)oxy)-4,5-dihydroxybenzoyl)oxy)-4,5-dihydroxybenzoic acid]", "values": [{"measurement": "IC50", "setting": "[1]", "value": 31, "unit": "nM"}, {"measurement": "effect on MK-801 induced hyper-locomotion vs MK-801 group", "setting": "MK-801 treated mice [2]; 30 mg/kg and 100 mg/kg oral", "value": "significantly reduced"}, {"measurement": "effect on MK-801 induced hyper-locomotion vs MK-801 group", "setting": "MK-801 treated mice [2]; low dose 10 mg/kg oral", "value": "marginally lower locomotion activity"}, {"measurement": "relief of MK801-induced hyperactivity", "setting": "MK-801 treated mice [2]; middle (30 mg/kg) and high dose (100 mg/kg) oral as worded", "value": 69, "unit": "%"}, {"measurement": "effect on pre-pulse inhibition vs MK-801 group", "setting": "MK-801 treated mice [3]; [5]", "value": "significantly improved PPI"}, {"measurement": "IC50", "setting": "SARS-CoV-2 3CLPro; read-out: IC50", "value": "> 31200", "unit": "nM"}, {"measurement": "IC50", "setting": "SARS-CoV-2 3CLPro; read-out: IC50 (μg/mL) (converted)", "value": "> 31200", "unit": "nM"}]}
{"smiles": "O=C(Oc1cc(C(=O)Oc2cc(C(=O)Oc3cc(C(=O)O[C@H]4OC[C@@H](OC(=O)c5cc(O)c(O)c(OC(=O)c6cc(O)c(O)c(OC(=O)c7cc(O)c(O)c(OC(=O)c8cc(O)c(O)c(O)c8)c7)c6)c5)[C@H](OC(=O)c5cc(O)c(O)c(OC(=O)c6cc(O)c(O)c(OC(=O)c7cc(O)c(O)c(OC(=O)c8cc(O)c(O)c(O)c8)c7)c6)c5)[C@H]4OC(=O)c4cc(O)c(O)c(OC(=O)c5cc(O)c(O)c(OC(=O)c6cc(O)c(O)c(OC(=O)c7cc(O)c(O)c(O)c7)c6)c5)c4)cc(O)c3O)cc(O)c2O)cc(O)c1O)c1cc(O)c(O)c(O)c1", "note": "[Compound 121, (2R,3R,4S,5R)-tetrahydro-2H-pyran-2,3,4,5-tetrayl tetrakis(3-((3-((3,4-dihydroxy-5-((3,4,5-trihydroxybenzoyl)oxy)benzoyl)oxy)-4,5-dihydroxybenzoyl)oxy)-4,5-dihydroxybenzoate)]", "values": [{"measurement": "IC50", "setting": "[1]", "value": 2.5, "unit": "nM"}, {"measurement": "effect on MK-801 induced hyper-locomotion vs MK-801 group", "setting": "MK-801 treated mice [2]; 3 mg/kg and 10 mg/kg oral", "value": "marginally lower locomotion activity"}, {"measurement": "effect on MK-801 induced hyper-locomotion vs MK-801 group", "setting": "MK-801 treated mice [2]; high dose 30 mg/kg oral", "value": "significantly reduced"}, {"measurement": "relief of MK801-induced hyperactivity", "setting": "MK-801 treated mice [2]; high dose 30 mg/kg oral", "value": 48, "unit": "%"}, {"measurement": "effect on pre-pulse inhibition vs MK-801 group", "setting": "MK-801 treated mice [3]; 75 and 83 dB pre-pulse, all tested doses 3, 10 and 30 mg/kg oral", "value": "higher potency"}]}
{"smiles": "O=C(OC[C@H]1O[C@H](OC(=O)c2cc(O)c(O)c(OC(=O)c3cc(O)c(O)c(OC(=O)c4cc(O)c(O)c(OC(=O)c5cc(O)c(O)c(O)c5)c4)c3)c2)[C@H](OC(=O)c2cc(O)c(O)c(OC(=O)c3cc(O)c(O)c(OC(=O)c4cc(O)c(O)c(OC(=O)c5cc(O)c(O)c(O)c5)c4)c3)c2)[C@@H]1OC(=O)c1cc(O)c(O)c(OC(=O)c2cc(O)c(O)c(OC(=O)c3cc(O)c(O)c(OC(=O)c4cc(O)c(O)c(O)c4)c3)c2)c1)c1cc(O)c(O)c(OC(=O)c2cc(O)c(O)c(OC(=O)c3cc(O)c(O)c(OC(=O)c4cc(O)c(O)c(O)c4)c3)c2)c1", "note": "[Compound 138, (2R,3R,4R,5R)-5-(((3-((3-((3,4-dihydroxy-5-((3,4,5-trihydroxybenzoyl)oxy)benzoyl)oxy)-4,5-dihydroxybenzoyl)oxy)-4,5-dihydroxybenzoyl)oxy)methyl)tetrahydrofuran-2,3,4-triyl tris(3-((3-((3,4-dihydroxy-5-((3,4,5-trihydroxybenzoyl)oxy)benzoyl)oxy)-4,5-dihydroxybenzoyl)oxy)-4,5-dihydroxybenzoate)]", "values": [{"measurement": "IC50", "setting": "[1]", "value": 4, "unit": "nM"}, {"measurement": "effect on MK-801 induced hyper-locomotion vs MK-801 group", "setting": "MK-801 treated mice [2]; 3, 10 and 30 mg/kg oral, dose-dependent", "value": "significantly reduced"}, {"measurement": "relief of MK801-induced hyperactivity", "setting": "MK-801 treated mice [2]; high dose 30 mg/kg oral", "value": 43, "unit": "%"}, {"measurement": "effect on pre-pulse inhibition vs MK-801 group", "setting": "MK-801 treated mice [3]; [4]", "value": "relieve PPI deficit"}]}
